Assays:
skeletal muscle myosin 2 = settings: cited from earlier work
myosin 2 = myosin 2 inhibitors, review data; cited from earlier work
platelet myosin 2 = platelet myosin 2 (Homo sapiens, UniProt P35579); settings: cited from earlier work
[1] = solubility in PBS in the presence of 1% DMSO; type: physicochemical; settings: phosphate buffered saline with 1% DMSO, aqueous buffer, kinetic from dmso stock, PBS w/o Mg, Ca
[2] = target: recombinant human non-muscle myosin 2 NM2C (Homo sapiens, UniProt Q7Z406); test: actomyosin steady state ATPase measurement, NM2C; type: biochemical; settings: for IC50: concentration required for semi-maximal inhibition of ATPase; for inhibition at 5 µM: read-out: % inhibition at 5 μM (or 10 μM if racemate) NM2C, 5 μM (10 μM if racemate); for inhibition at 5 µM / inhibition at 50 µM: ATPase activity; for inhibition at 50 µM: read-out: % inhibition at 50 μM (or 100 μM if racemate) NM2C, 50 μM (100 μM if racemate); for % inhibition. complete NM2C: maximum value of inhibition of ATPase activity
Text: (§1) […]; (ii) the concentration required for semi-maximal inhibition.

[3] = target: recombinant human non-muscle myosin 2 NM2B (Homo sapiens, UniProt P35580); test: actomyosin steady state ATPase measurement, NM2B; type: biochemical; settings: for IC50: concentration required for semi-maximal inhibition of ATPase; for % inhibition. complete NM2B: maximum value of inhibition of ATPase activity; for inhibition at 5 µM: read-out: % inhibition at 5 μM (or 10 μM if racemate) NM2B, 5 μM (10 μM if racemate); for inhibition at 5 µM / inhibition at 50 µM: ATPase activity; for inhibition at 50 µM: read-out: % inhibition at 50 μM (or 100 μM if racemate) NM2B, 50 μM (100 μM if racemate)
Text: as §1

[4] = test system: isolated rabbit skeletal muscle myosin (skeletal); test: actomyosin steady state ATPase measurement, skeletal muscle myosin; type: biochemical; settings: for % inhibition at 5 μM (or 10 μM if racemate) Skeletal: 5 μM (10 μM if racemate); for % inhibition at 5 μM (or 10 μM if racemate) Skeletal / % inhibition at 50 μM (or 100 μM if racemate) Skeletal: ATPase activity; for % inhibition at 50 μM (or 100 μM if racemate) Skeletal: 50 μM (100 μM if racemate); for IC50: concentration required for semi-maximal inhibition of ATPase; for % inhibition. complete Skeletal: maximum value of inhibition of ATPase activity
Text: as §1

[5] = target: isolated smooth muscle myosin (UniProt P10587); type: biochemical, chamois; settings: for % inhibition at 5 μM (or 10 μM if racemate) Smooth: 5 μM (10 μM if racemate); for % inhibition at 5 μM (or 10 μM if racemate) Smooth / % inhibition at 50 μM (or 100 μM if racemate) Smooth: ATPase activity; for % inhibition at 50 μM (or 100 μM if racemate) Smooth: 50 μM (100 μM if racemate); for % inhibition. complete Smooth: maximum value of inhibition of ATPase activity
Chain of isolated smooth muscle myosin (P10587 whole entry): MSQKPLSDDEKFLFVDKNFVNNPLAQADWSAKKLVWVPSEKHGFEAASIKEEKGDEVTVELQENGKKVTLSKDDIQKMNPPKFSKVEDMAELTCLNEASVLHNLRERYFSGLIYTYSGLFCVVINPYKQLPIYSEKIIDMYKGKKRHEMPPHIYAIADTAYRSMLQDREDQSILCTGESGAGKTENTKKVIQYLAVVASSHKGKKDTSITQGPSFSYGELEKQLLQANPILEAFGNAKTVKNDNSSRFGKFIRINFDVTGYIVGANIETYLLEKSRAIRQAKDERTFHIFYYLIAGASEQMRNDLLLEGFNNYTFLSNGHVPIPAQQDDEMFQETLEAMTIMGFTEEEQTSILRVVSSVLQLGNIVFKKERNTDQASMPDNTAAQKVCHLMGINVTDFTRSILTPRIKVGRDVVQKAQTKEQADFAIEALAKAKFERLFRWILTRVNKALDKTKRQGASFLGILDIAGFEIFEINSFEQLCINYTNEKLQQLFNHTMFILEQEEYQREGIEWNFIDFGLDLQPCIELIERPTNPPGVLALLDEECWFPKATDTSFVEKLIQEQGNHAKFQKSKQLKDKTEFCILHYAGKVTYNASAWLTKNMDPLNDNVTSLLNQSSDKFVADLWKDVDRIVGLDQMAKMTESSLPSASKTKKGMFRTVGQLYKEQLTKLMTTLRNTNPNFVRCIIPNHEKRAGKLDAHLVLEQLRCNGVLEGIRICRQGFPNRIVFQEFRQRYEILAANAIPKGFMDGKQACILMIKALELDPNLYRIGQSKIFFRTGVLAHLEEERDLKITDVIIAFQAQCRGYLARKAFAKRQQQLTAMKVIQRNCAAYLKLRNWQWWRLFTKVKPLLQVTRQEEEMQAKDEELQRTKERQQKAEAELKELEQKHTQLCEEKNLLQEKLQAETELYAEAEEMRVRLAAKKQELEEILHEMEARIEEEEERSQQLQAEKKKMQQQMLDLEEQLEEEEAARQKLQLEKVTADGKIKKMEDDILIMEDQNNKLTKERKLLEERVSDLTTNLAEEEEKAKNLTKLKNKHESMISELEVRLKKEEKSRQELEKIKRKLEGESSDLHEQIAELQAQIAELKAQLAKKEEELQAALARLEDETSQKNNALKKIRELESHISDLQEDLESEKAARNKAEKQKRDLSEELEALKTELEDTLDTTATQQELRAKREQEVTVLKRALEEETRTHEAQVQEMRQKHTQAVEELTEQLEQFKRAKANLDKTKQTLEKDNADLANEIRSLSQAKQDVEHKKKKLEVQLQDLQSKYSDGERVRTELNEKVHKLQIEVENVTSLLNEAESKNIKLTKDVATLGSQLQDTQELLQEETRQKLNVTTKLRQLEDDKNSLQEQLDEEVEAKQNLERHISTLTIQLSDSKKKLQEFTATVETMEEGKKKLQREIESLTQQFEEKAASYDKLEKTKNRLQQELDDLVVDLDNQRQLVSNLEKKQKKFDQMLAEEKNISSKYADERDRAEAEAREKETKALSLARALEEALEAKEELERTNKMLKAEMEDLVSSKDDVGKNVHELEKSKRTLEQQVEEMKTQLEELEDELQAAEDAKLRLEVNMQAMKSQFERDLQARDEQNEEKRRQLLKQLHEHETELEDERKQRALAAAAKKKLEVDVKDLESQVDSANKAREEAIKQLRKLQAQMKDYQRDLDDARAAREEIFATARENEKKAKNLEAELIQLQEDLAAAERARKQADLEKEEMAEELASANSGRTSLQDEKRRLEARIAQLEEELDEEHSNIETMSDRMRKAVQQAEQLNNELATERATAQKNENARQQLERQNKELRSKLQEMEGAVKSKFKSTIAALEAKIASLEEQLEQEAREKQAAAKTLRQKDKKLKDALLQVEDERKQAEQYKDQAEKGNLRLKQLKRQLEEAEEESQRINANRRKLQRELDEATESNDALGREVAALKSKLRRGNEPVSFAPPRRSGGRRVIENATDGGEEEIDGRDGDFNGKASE

[6] = target: recombinant human non-muscle myosin 2 NM2A (Homo sapiens, UniProt P35579); test: actomyosin steady state ATPase measurement, NM2A; type: biochemical; settings: for IC50: concentration required for semi-maximal inhibition of ATPase; for inhibition at 5 µM: read-out: % inhibition at 5 μM (or 10 μM if racemate) NM2A, 5 μM (10 μM if racemate); for inhibition at 5 µM / inhibition at 50 µM: ATPase activity; for inhibition at 50 µM: read-out: % inhibition at 50 μM (or 100 μM if racemate) NM2A, 50 μM (100 μM if racemate); for % inhibition. complete NM2A: maximum value of inhibition of ATPase activity
Text: as §1

[7] = target: recombinant Dictyostelium miozin (Dictyostelium) (Dictyostelium discoideum, UniProt P08799); test: actomyosin steady state ATPase measurement, Dictyostelium myosin; type: biochemical; settings: for IC50: concentration required for semi-maximal inhibition of ATPase, read-out: IC50 (μM) Dicty; for % inhibition. complete Dicty: maximum value of inhibition of ATPase activity; for inhibition at 5 µM: read-out: % inhibition at 5 μM (or 10 μM if racemate) Dicty; for inhibition at 50 µM: read-out: % inhibition at 50 μM (or 100 μM if racemate) Dicty
Text: as §1

[8] = vital parameters of live anesthetized rats monitored during isometric force measurement; type: in vivo; settings: anesthetized rat; for Maximum change of vital parameters (%) blood flow: neck arteries
Method: (§2) The maximum isometric force induced by the stimulation was determined after intraperitoneal injection of some of the compounds of the invention. During the measurement, the following parameters of live anesthetized rats were continuously monitored: • a) heart rate • b) blood flow in the neck arteries • c) respiratory frequency • d) blood oxygen saturation ratio

[9] = target: isolated smooth muscle myosin (UniProt P10587); type: biochemical, chamois; settings: concentration required for semi-maximal inhibition of ATPase
Text: (ii) the concentration required for semi-maximal inhibition.

[10] = target: T1, isolated porcine cardiac ventricular myocardium (cardiac) (Sus scrofa, UniProt P79293); test: actomyosin steady state ATPase measurement, cardiac myosin; type: biochemical; settings: for IC50: concentration required for semi-maximal inhibition of ATPase; for % inhibition. complete cardiac: maximum value of inhibition of ATPase activity; for inhibition at 5 µM: read-out: % inhibition at 5 μM (or 10 μM if racemate) cardiac, 5 μM (10 μM if racemate); for inhibition at 5 µM / inhibition at 50 µM: ATPase activity; for inhibition at 50 µM: read-out: % inhibition at 50 μM (or 100 μM if racemate) cardiac, 50 μM (100 μM if racemate); for Inhibition (%) cardiac: maximum inhibition, compounds in IC50 range 3-6 μM
T1 construct: isolated porcine cardiac ventricular myocardium (cardiac); from tissue; host or cells: porcine cardiac ventricle
T1 sequence (P79293 whole entry): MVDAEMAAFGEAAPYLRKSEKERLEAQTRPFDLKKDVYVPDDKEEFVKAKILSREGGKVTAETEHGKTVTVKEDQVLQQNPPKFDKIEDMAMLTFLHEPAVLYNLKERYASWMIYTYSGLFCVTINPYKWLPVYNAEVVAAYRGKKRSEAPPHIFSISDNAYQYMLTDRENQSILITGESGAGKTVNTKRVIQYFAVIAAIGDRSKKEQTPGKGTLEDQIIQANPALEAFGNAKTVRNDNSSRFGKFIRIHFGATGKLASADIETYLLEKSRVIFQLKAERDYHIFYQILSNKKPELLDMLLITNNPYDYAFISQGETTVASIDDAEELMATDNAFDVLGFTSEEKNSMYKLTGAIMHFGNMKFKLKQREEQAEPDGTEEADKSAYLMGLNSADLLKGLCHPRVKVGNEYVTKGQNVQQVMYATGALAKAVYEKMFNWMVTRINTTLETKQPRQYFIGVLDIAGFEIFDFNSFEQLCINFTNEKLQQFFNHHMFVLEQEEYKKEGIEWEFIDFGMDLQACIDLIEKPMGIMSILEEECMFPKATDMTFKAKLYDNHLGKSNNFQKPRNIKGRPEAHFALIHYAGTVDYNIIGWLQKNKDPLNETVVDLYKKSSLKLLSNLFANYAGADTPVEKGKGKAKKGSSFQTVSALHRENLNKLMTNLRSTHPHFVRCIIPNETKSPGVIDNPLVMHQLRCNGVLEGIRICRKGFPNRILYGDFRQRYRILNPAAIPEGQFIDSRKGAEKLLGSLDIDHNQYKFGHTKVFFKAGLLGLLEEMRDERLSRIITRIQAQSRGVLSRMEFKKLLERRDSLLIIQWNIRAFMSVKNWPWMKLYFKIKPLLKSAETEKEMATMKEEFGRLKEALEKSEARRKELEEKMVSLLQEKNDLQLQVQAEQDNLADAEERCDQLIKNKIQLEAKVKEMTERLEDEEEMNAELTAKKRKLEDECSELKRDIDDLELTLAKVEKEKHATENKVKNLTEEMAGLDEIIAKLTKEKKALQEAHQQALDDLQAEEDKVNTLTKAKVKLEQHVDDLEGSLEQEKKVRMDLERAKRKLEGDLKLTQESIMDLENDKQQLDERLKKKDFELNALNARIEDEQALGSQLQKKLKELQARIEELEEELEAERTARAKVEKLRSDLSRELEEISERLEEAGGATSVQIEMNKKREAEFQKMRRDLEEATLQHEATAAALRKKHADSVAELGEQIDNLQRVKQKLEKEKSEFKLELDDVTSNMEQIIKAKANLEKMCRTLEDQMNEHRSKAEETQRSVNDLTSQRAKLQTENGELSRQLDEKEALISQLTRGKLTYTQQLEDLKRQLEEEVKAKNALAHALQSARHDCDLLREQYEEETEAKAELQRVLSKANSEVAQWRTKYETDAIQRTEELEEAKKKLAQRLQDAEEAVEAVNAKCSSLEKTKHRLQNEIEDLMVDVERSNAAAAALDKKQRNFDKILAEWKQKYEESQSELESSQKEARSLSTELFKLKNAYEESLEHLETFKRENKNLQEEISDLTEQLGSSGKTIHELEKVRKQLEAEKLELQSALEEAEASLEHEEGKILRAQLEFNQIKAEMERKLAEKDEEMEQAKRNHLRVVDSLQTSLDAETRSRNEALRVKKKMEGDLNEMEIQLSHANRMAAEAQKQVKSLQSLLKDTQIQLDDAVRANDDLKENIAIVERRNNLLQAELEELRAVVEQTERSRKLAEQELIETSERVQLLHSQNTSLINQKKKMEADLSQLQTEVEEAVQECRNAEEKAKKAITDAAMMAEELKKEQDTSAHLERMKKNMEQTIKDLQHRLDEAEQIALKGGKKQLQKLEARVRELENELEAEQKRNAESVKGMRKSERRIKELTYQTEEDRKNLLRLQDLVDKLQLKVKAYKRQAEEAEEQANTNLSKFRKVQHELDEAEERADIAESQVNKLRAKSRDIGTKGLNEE
Text: as §1

M. quadriceps femoris = test: isometric force measurement of live, anesthetized rat M. quadriceps femoris due to electrical stimulation; type: in vivo
Method: as §2, with “saturation ratio Results from live anesthetized rats are summarized in the table below.” for “saturation ratio”

[11] = test system: myosin 1, myosin 5, and myosin 10; settings: cited from earlier work

## CC(=O)/C(C)=N/O [BDM, 2,3-butanedione monoxime]
Skeletal muscle myosin 2; skeletal muscle myosin 2, binds weakly
  IC50: ~5000 µM
Myosin 2
  Binding strength: ~5 mM

## Cc1ccc(S(=O)(=O)NCc2ccccc2)cc1 [BTS, N-Benzyl-p-toluenesulfonamide]
Skeletal muscle myosin 2; selectivity among myosin 2 isoforms
  inhibits fast muscle skeletal myosin-2 times more stronger than slow skeletal muscle myosin-2, myocardial myosin-2 or non-muscle myosin 2: 100 times
Platelet myosin 2
  inhibition of platelet myosin 2: does not inhibit
Myosin 2
  Binding strength: ~0.005 mM

## O=C1c2ccncc2N=C2N(c3ccccc3)CCC12O (stereo not shown) [Compound 174, 3a-Hydroxy-1-phenyl-1H,2H,3H,3aH,4H-pyrrolo[2,3-b]1,7-naphthyridin-4-one]
[1]
  solubility: ≥ 1000 µM
[2]
  IC50: 2 µM
  inhibition at 5 µM: 7%
  inhibition at 50 µM: 9%
[3]
  IC50: 15 µM
  % inhibition. complete NM2B: 12%
  inhibition at 5 µM: 2%
  inhibition at 50 µM: 9%
[4]
  % inhibition at 5 μM (or 10 μM if racemate) Skeletal: 25%
  % inhibition at 50 μM (or 100 μM if racemate) Skeletal: 77%
  IC50: 17 µM
  % inhibition. complete Skeletal: 100%
[5]
  % inhibition at 5 μM (or 10 μM if racemate) Smooth: 1%
  % inhibition at 50 μM (or 100 μM if racemate) Smooth: 6%
  % inhibition. complete Smooth: 51%
[6]
  IC50: 1 µM
  inhibition at 5 µM: 12%
  inhibition at 50 µM: 9%
[7]
  IC50: 10 µM
  % inhibition. complete Dicty: 20%
  inhibition at 5 µM: 7%
  inhibition at 50 µM: 17%
[7]; maximum inhibition, compounds in IC50 range 1-11 μM
  Inhibition (%) Dicty: 20%
[8]; 6 mg i.p.
  Maximum change of vital parameters (%) heart rate: 3%
  Maximum change of vital parameters (%) oxygen saturation: −19%
  Maximum change of vital parameters (%) respiratory frequency: −20%
  Maximum change of vital parameters (%) blood flow: 4%
[9]
  IC50: > 100 µM
[10]
  IC50: > 100 µM
  % inhibition. complete cardiac: 100%
  inhibition at 5 µM: 2%
  inhibition at 50 µM: 15%
M. quadriceps femoris; 6 mg i.p.
  Maximum change in isometric force at rear leg (%): 25%

## O=C1c2ccsc2N=C2N(c3ccccc3)CCC12O (stereo not shown) [Compound 180, 9-Hydroxy-12-phenyl-4-thia-2,12-diazatricyclo[7.3.0.0^3,7]dodeca-1,3(7),5-trien-8-one]
[1]
  solubility: 2400 µM
[2]
  IC50: 9.3 µM
  % inhibition. complete NM2C: 60%
  inhibition at 5 µM: 20%
  inhibition at 50 µM: 55%
[3]
  IC50: 18.7 µM
  % inhibition. complete NM2B: 60%
  inhibition at 5 µM: 14%
  inhibition at 50 µM: 44%
[4]
  % inhibition at 5 μM (or 10 μM if racemate) Skeletal: 87%
  % inhibition at 50 μM (or 100 μM if racemate) Skeletal: 96%
  IC50: 0.81 µM
  % inhibition. complete Skeletal: 99%
[5]
  % inhibition at 5 μM (or 10 μM if racemate) Smooth: 16%
  % inhibition at 50 μM (or 100 μM if racemate) Smooth: 38%
  % inhibition. complete Smooth: 58%
[6]
  IC50: 9.8 µM
  % inhibition. complete NM2A: 48%
  inhibition at 5 µM: 15%
  inhibition at 50 µM: 44%
[6]; maximum inhibition, compounds in IC50 range 5-10 μM
  Inhibition (%) NM2A: 48%
[7]
  IC50: 13.1 µM
  % inhibition. complete Dicty: 85%
  inhibition at 5 µM: 22%
  inhibition at 50 µM: 67%
[9]
  IC50: 14 µM
[10]
  IC50: 5.1 µM
  Inhibition (%) cardiac: 89%
  % inhibition. complete cardiac: 89%
  inhibition at 5 µM: 42%
  inhibition at 50 µM: 81%

## Cc1cc2c(s1)N=C1N(c3ccc(N4CCOCC4)cc3)CCC1(O)C2=O (stereo not shown) [Compound 220, 9-Hydroxy-5-methyl-12-[4-(morpholin-4-yl)phenyl]-4-thia-2,12-diazatricyclo[7.3.0.0^3,7]dodeca-1,3(7),5-trien-8-one]
[1]
  solubility: 710 µM
[2]
  IC50: 1.8 µM
  % inhibition. complete NM2C: 24%
  inhibition at 5 µM: 19%
  inhibition at 50 µM: 21%
[2]; maximum inhibition, compounds in IC50 range 1-5 μM
  Inhibition (%) NM2C: 24%
[4]
  % inhibition at 5 μM (or 10 μM if racemate) Skeletal: 86%
  % inhibition at 50 μM (or 100 μM if racemate) Skeletal: 94%
  IC50: 0.49 µM
  % inhibition. complete Skeletal: 96%
[5]
  % inhibition at 5 μM (or 10 μM if racemate) Smooth: 34%
  % inhibition at 50 μM (or 100 μM if racemate) Smooth: 54%
  % inhibition. complete Smooth: 51%
[6]
  IC50: 0.93 µM
  % inhibition. complete NM2A: 20%
  inhibition at 5 µM: 16%
  inhibition at 50 µM: 22%
[7]
  IC50: > 100 µM
  inhibition at 5 µM: 0%
  inhibition at 50 µM: 0%
[8]; 1 mg i.p.
  Maximum change of vital parameters (%) heart rate: 1%
  Maximum change of vital parameters (%) oxygen saturation: −1%
  Maximum change of vital parameters (%) respiratory frequency: −13%
  Maximum change of vital parameters (%) blood flow: 8%
[8]; 3 mg i.p.
  Maximum change of vital parameters (%) heart rate: 8%
  Maximum change of vital parameters (%) oxygen saturation: −17%
  Maximum change of vital parameters (%) respiratory frequency: −21%
  Maximum change of vital parameters (%) blood flow: 19%
[8]; 6 mg i.p.
  Maximum change of vital parameters (%) heart rate: 22%
  Maximum change of vital parameters (%) oxygen saturation: −28%
  Maximum change of vital parameters (%) respiratory frequency: −22%
  Maximum change of vital parameters (%) blood flow: −1%
[8]; 10 mg i.p.
  Maximum change of vital parameters (%) heart rate: 3%
  Maximum change of vital parameters (%) oxygen saturation: −41%
  Maximum change of vital parameters (%) respiratory frequency: −30%
  Maximum change of vital parameters (%) blood flow: −3%
[9]
  IC50: 2.3 µM
[10]
  IC50: 5.6 µM
  Inhibition (%) cardiac: 39%
  % inhibition. complete cardiac: 39%
  inhibition at 5 µM: 17%
  inhibition at 50 µM: 37%
M. quadriceps femoris; 1 mg i.p.
  Maximum change in isometric force at rear leg (%): 19%
M. quadriceps femoris; 3 mg i.p.
  Maximum change in isometric force at rear leg (%): 23%
M. quadriceps femoris; 6 mg i.p.
  Maximum change in isometric force at rear leg (%): 42%

## Cc1ccc2c(c1)C(=O)[C@]1(O)CCN(c3ccccc3)C1=N2 [blebbistatin]
[11]
  inhibition of myosin 1, myosin 5, and myosin 10: does not inhibit

From patent US12421243B2, “Pharmaceutically effective compounds inhibiting selectively the myosin 2 isoforms” (PRINTNET KERESKEDELMI ÉS SZOLGÁLTATÓ KFT., priority 2018, dated 2025)
